Data reported in ChEMBL document CHEMBL4616706 (ACS Med Chem Lett, 2020).
pIC50: −log10 of the molar value. ≈ marks a conversion by molar mass, not a printed value. Each block holds one compound with its values, some of them ahead of it.

Experiments:
[1] = Solubility of compound by LYSA assay; type: physicochemical
[2] = Clearance in human hepatocytes assessed per million cells; type: ADME, cell-based, Hepatocyte; conditions: read-out: CLH
P-gp (ABCB1) = P-gp (ABCB1) (Homo sapiens, UniProt P08183); experiment: Substrate activity at human P-gp assessed as efflux ratio; type: ADME; conditions: not told
Sequence of P-gp (ABCB1) (P08183 whole entry, the tested form may be a part): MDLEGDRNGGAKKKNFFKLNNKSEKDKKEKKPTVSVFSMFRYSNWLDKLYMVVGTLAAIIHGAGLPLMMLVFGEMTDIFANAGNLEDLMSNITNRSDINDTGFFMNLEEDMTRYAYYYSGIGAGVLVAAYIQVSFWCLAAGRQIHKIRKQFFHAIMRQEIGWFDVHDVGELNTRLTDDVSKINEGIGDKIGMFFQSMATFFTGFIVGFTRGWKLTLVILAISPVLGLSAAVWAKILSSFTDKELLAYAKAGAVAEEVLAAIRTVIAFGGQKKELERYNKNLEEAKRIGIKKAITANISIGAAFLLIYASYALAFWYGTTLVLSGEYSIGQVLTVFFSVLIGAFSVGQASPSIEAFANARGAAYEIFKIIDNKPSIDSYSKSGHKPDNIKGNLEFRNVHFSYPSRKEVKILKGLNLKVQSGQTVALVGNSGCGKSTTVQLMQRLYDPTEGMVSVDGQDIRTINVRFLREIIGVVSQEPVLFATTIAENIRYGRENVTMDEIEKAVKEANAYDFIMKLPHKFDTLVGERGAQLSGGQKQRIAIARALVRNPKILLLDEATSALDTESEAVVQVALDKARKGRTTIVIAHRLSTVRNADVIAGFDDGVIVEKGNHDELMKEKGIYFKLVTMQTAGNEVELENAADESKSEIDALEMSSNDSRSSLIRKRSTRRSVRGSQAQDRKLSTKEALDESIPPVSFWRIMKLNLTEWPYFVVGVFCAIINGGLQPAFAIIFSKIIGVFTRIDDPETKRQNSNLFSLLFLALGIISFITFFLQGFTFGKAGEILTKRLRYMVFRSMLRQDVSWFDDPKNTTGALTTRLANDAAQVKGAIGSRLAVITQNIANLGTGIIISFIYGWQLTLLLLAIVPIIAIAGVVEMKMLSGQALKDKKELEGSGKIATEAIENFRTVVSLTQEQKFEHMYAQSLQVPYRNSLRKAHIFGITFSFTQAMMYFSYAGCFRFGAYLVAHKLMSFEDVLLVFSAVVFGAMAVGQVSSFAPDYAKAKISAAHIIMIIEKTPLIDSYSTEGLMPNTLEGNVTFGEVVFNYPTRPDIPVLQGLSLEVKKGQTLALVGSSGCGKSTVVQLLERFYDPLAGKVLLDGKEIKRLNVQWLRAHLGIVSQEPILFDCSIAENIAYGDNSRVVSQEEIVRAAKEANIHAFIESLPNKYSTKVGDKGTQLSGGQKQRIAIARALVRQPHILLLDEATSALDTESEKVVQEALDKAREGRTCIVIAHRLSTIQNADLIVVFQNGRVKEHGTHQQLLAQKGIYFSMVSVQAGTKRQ

Gamma-secretase [3] = experiment: Modulation of gamma secretase in human H4 cells overexpressing human APP695 harboring K595N/M596L Swedish double mutant assessed as reduction in total amyloid beta (1 to 42 residues) production measured after 24 hrs by AlphaLISA assay; type: cell-based
hERG (KCNH2) = hERG (KCNH2) (Homo sapiens, UniProt Q12809); experiment: (§1) Inhibition of human ERG; conditions: human
Sequence of hERG (KCNH2) (Q12809 whole entry): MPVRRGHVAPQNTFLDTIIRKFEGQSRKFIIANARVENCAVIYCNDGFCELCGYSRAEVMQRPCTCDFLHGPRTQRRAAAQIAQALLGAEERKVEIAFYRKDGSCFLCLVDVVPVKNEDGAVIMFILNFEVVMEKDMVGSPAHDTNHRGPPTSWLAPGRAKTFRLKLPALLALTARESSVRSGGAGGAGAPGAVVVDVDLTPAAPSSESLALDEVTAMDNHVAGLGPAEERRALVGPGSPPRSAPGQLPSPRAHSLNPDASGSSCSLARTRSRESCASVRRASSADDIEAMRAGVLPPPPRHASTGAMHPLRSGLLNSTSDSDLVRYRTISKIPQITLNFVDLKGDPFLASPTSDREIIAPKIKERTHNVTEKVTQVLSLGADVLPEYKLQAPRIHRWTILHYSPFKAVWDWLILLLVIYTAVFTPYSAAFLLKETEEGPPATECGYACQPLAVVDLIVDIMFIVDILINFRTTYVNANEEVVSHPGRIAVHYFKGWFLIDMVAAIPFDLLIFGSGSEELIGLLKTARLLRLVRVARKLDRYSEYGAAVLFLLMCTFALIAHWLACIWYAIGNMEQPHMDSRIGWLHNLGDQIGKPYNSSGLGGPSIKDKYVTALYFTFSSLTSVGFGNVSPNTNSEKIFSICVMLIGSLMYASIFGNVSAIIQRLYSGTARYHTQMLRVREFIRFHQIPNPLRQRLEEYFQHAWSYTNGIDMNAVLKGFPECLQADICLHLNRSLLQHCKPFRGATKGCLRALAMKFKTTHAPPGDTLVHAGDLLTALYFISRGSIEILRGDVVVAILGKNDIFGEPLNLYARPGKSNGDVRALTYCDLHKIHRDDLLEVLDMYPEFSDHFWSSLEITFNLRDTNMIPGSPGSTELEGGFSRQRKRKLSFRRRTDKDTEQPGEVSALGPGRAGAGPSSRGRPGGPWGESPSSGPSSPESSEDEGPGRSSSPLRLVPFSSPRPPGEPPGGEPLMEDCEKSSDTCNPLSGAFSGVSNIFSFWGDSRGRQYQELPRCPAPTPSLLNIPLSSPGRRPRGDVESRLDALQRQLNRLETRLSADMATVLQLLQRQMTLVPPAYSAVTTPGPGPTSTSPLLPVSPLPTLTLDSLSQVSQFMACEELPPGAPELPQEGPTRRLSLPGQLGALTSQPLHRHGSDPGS

[4] = molecular target: Voltage-gated inwardly rectifying potassium channel KCNH2 (Homo sapiens, UniProt Q12809); experiment: as §1
Sequence of Voltage-gated inwardly rectifying potassium channel KCNH2 (Q12809 whole entry): as above

[5] = Clearance in C57BL/6J mouse at 1 mg/kg, iv administered as single dose; type: ADME, organism-based; conditions: in vivo
[6] = Unbound fraction in rat plasma; type: ADME, cell-free
P-gp = experiment: Substrate activity at mouse P-gp assessed as efflux ratio; type: ADME; conditions: not told
[7] = Glutathione reactivity of compound; type: physicochemical
Gamma-secretase [8] = experiment: Modulation of human gamma secretase expressed in HEK293 cells assessed as reduction in free amyloid beta (1 to 42 residues) production; type: cell-based
[9] = Volume of distribution at steady state in C57BL/6J mouse at 1 mg/kg, iv administered as single dose; type: ADME, organism-based; conditions: in vivo, read-out: Vdss
[10] = Genotoxicity in Salmonella typhimurium by Ames test; type: toxicity; conditions: salmonella enterica subsp. enterica serovar typhimurium
[11] = Distribution coefficient, logD of compound; type: physicochemical; conditions: octanol/water
[12] = Oral bioavailability in C57BL/6J mouse at 3 mg/kg administered as single dose; type: ADME, organism-based; conditions: in vivo
[13] = Clearance in rat hepatocytes assessed per million cells; type: ADME, cell-based, Hepatocyte; conditions: read-out: CLH
[14] = Unbound fraction in mouse plasma; type: ADME, cell-free
Gamma-secretase [15] = experiment: Modulation of human gamma secretase expressed in HEK293 cells assessed as reduction in total amyloid beta (1 to 42 residues) production; type: cell-based
[16] = Unbound fraction in human plasma; type: ADME, cell-free
[17] = Clearance in mouse hepatocytes assessed per million cells; type: ADME, cell-based, Hepatocyte; conditions: read-out: CLH
Mus musculus = experiment: In vivo modulation of gamma secretase in APP Swedish double transgenic mouse assessed as reduction in free amyloid beta (1 to 42 residues) production measured after 4 hrs by AlphaLISA assay; type: functional, organism-based
Gamma-secretase [18] = experiment: Modulation of gamma secretase in human H4 cells overexpressing human APP695 harboring K595N/M596L Swedish double mutant assessed as reduction in free amyloid beta (1 to 42 residues) production measured after 24 hrs by AlphaLISA assay; type: cell-based
[19] = Modulation of mouse gamma secretase in N2A cells assessed as reduction in total amyloid beta (1 to 42 residues) production; type: cell-based
[20] = Terminal half life in C57BL/6J mouse at 1 mg/kg, iv administered as single dose; type: ADME, organism-based; conditions: in vivo, read-out: beta t1/2 (converted)
[21] = Modulation of mouse gamma secretase in N2A cells assessed as reduction in free amyloid beta (1 to 42 residues) production; type: cell-based
[22] = Terminal half life in Wistar rat at 1 mg/kg, iv administered as single dose; type: ADME, organism-based; conditions: in vivo, read-out: beta t1/2 (converted)
[23] = Clearance in Wistar rat at 1 mg/kg, iv administered as single dose; type: ADME, organism-based; conditions: in vivo
[24] = Volume of distribution at steady state in Wistar rat at 1 mg/kg, iv administered as single dose; type: ADME, organism-based; conditions: in vivo, read-out: Vdss
[25] = Oral bioavailability in Wistar rat at 3 mg/kg administered as single dose; type: ADME, organism-based; conditions: in vivo

Compound: Fc1ccc(C2CCn3nc(N[C@@H]4[C@@H]5CC[C@H]4CN(c4ccnc(C(F)(F)F)c4)C5)nc32)c(F)c1F (mixture of isomers)
pIC50 (Gamma-secretase [3]): 6.90

Compound: COc1cc(N2C[C@H]3CC[C@@H](C2)[C@@H]3Nc2nc3n(n2)CCCCC3c2ccc(F)c(F)c2F)ncn1 (mixture of isomers)
IC20 (hERG (KCNH2)): 200 nM | pIC50 [4]: 6.26 | pIC50 (Gamma-secretase [3]): 7.54

Compound: Fc1ccc(C2CCCn3nc(N[C@@H]4[C@@H]5CC[C@H]4CN(c4ccnc(C(F)(F)F)c4)C5)nc32)c(F)c1F (mixture of isomers)
pIC50 (Gamma-secretase [3]): 7.36

Compound: Cc1cc(N2C[C@H]3CC[C@@H](C2)[C@@H]3Nc2nc3n(n2)CCCC[C@H]3c2ccc(F)c(F)c2F)ncn1
clearance [5]: 5 mL/min/kg | fraction unbound [6]: 0.014 | efflux ratio (P-gp): 3.3 | Drug metabolism [7]: Not Active | pIC50 (Gamma-secretase [8]): 8.40 | Vd [9]: 1.1 L/kg | Activity [10]: Non-Toxic | logD [11]: 3.8 | bioavailability [12]: 53% | hepatocyte CLint [13]: 43 µL/min/1e6 cells | IC20 (hERG (KCNH2)): 300 nM | pIC50 [4]: 5.85 | fraction unbound [14]: 0.014 | hepatocyte CLint [2]: 4.5 µL/min/1e6 cells | pIC50 (Gamma-secretase [15]): 8.70 | efflux ratio (P-gp (ABCB1)): 2.4 | fraction unbound [16]: 0.054 | hepatocyte CLint [17]: 1.4 µL/min/1e6 cells | pIC50 (Mus musculus): 8.60 | pIC50 (Gamma-secretase [18]): 8.40 | pIC50 [19]: 8.70 | half-life [20]: 3.4 h | pIC50 [21]: 8.40

Compound: Fc1ccc(C2CCCCn3nc(N[C@@H]4[C@@H]5CC[C@H]4CN(c4ccnc(C(F)(F)F)c4)C5)nc32)c(F)c1F (mixture of isomers)
pIC50 (Gamma-secretase [3]): 7.51

Compound: Fc1ccc(N2CCCCn3nc(N[C@@H]4[C@@H]5CC[C@H]4CN(c4ccnc(C(F)(F)F)c4)C5)nc32)cc1F
pIC50 (Gamma-secretase [3]): 7.47

Compound: Cc1cc(N2C[C@H]3CC[C@@H](C2)[C@@H]3Nc2nc3n(n2)CCN3c2ccc(C(F)(F)F)cc2)ncn1
pIC50 (Gamma-secretase [3]): 7.59

Compound: Fc1ccc(C2CCCn3nc(N[C@@H]4[C@@H]5CC[C@H]4CN(c4cc(Cl)ncn4)C5)nc32)c(F)c1F (mixture of isomers)
pIC50 (Gamma-secretase [3]): 7.52

Compound: Cc1cc(N2C[C@H]3CC[C@@H](C2)[C@@H]3Nc2nc3n(n2)CCCN3c2cc(F)cc(F)c2)ncn1
fraction unbound [6]: 0.014 | Drug metabolism [7]: Not Active | Activity [10]: Non-Toxic | logD [11]: 3.5 | half-life [22]: 4.6 h | hepatocyte CLint [13]: 6.4 µL/min/1e6 cells | clearance [23]: 3.5 mL/min/kg | solubility [1]: 6 µg/mL (≈ 13.3 µM) | fraction unbound [14]: 0.006 | hepatocyte CLint [2]: 2.4 µL/min/1e6 cells | fraction unbound [16]: 0.01 | Vd [24]: 1.1 L/kg | hepatocyte CLint [17]: 0.6 µL/min/1e6 cells | pIC50 (Mus musculus): 8.52 | bioavailability [25]: 82% | pIC50 [19]: 8.52 | pIC50 [21]: 8.30

Compound: FC(F)(F)c1cccc(C2CCCCn3nc(N[C@@H]4[C@@H]5CC[C@H]4CN(c4cnnc(Cl)c4)C5)nc32)c1 (mixture of isomers)
pIC50 (Gamma-secretase [3]): 7.51

Compound: Cc1noc(N2C[C@H]3CC[C@@H](C2)[C@@H]3Nc2nc3n(n2)CCCCC3c2ccc(F)c(F)c2F)n1 (mixture of isomers)
pIC50 (Gamma-secretase [3]): 7.36

Compound: COc1cc(N2C[C@H]3CC[C@@H](C2)[C@@H]3Nc2nc3n(n2)CCCCC3c2cccc(C(F)(F)F)c2)cnn1 (mixture of isomers)
pIC50 (Gamma-secretase [3]): 7.40

Compound: Cc1nnc(N2C[C@H]3CC[C@@H](C2)[C@@H]3Nc2nc3n(n2)CCCCC3c2ccc(F)c(F)c2F)o1 (mixture of isomers)
pIC50 (Gamma-secretase [3]): 7.31

Compound: Cc1cc(N2C[C@H]3CC[C@@H](C2)[C@@H]3Nc2nc3n(n2)CCCCC3c2ccc(F)c(F)c2F)cnn1 (mixture of isomers)
solubility [1]: 188 µg/mL (≈ 389 µM) | hepatocyte CLint [2]: 2.1 µL/min/1e6 cells | efflux ratio (P-gp (ABCB1)): 20 | pIC50 (Gamma-secretase [3]): 7.52

Compound: Fc1ccc(C2CCn3nc(N[C@@H]4[C@@H]5CC[C@H]4CN(c4ccnc(C(F)(F)F)c4)C5)nc32)cc1F (some centres undefined)
pIC50 (Gamma-secretase [3]): 7.06

Compound: Cc1cc(N2C[C@H]3CC[C@@H](C2)[C@@H]3Nc2nc3n(n2)CCCCC3c2ccc(F)c(F)c2F)on1 (mixture of isomers)
pIC50 (Gamma-secretase [3]): 7.41

Compound: Cc1noc(N2C[C@H]3CC[C@@H](C2)[C@@H]3Nc2nc3n(n2)CCCN3c2ccc(F)c(F)c2)n1
solubility [1]: 158 µg/mL (≈ 357 µM) | hepatocyte CLint [2]: 1.5 µL/min/1e6 cells | pIC50 (Gamma-secretase [3]): 7.49

Compound: Cc1nnc(N2C[C@H]3CC[C@@H](C2)[C@@H]3Nc2nc3n(n2)CCCC3c2ccc(F)c(F)c2F)o1 (mixture of isomers)
pIC50 (Gamma-secretase [3]): 6.63

Compound: Cc1cc(N2C[C@H]3CC[C@@H](C2)[C@@H]3Nc2nc3n(n2)CCCC3c2ccc(C(F)(F)F)cc2)ncn1 (mixture of isomers)
pIC50 (Gamma-secretase [3]): 7.60

Further lines, with some results ahead:

solubility [1]: 34 µg/mL (≈ 68.3 µM) | hepatocyte CLint [2]: 14 µL/min/1e6 cells | efflux ratio (P-gp (ABCB1)): 2.2 | pIC50 (Gamma-secretase [3]): 7.72
Compound: Cc1cc(N2C[C@H]3CC[C@@H](C2)[C@@H]3Nc2nc3n(n2)CCCCC3c2cccc(C(F)(F)F)c2)ncn1 (mixture of isomers)

pIC50 (Gamma-secretase [3]): 7.96
Compound: Cc1cc(N2C[C@H]3CC[C@@H](C2)[C@@H]3Nc2nc3n(n2)CCCN3c2ccc(C(F)(F)F)cc2)ncn1

solubility [1]: 14 µg/mL (≈ 27.8 µM) | hepatocyte CLint [2]: 3.3 µL/min/1e6 cells | efflux ratio (P-gp (ABCB1)): 4.3 | pIC50 (Gamma-secretase [3]): 7.85
Compound: Fc1ccc(C2CCCCn3nc(N[C@@H]4[C@@H]5CC[C@H]4CN(c4cnnc(Cl)c4)C5)nc32)c(F)c1F (mixture of isomers)

solubility [1]: 131 µg/mL (≈ 289 µM) | hepatocyte CLint [2]: 2.3 µL/min/1e6 cells | efflux ratio (P-gp (ABCB1)): 3.3 | pIC50 (Gamma-secretase [3]): 7.64
Compound: Cc1cc(N2C[C@H]3CC[C@@H](C2)[C@@H]3Nc2nc3n(n2)CCCN3c2ccc(F)c(F)c2)cnn1

hepatocyte CLint [2]: 6.5 µL/min/1e6 cells | pIC50 (Gamma-secretase [3]): 7.64
Compound: Cc1cc(N2C[C@H]3CC[C@@H](C2)[C@@H]3Nc2nc3n(n2)CCCCC3c2ccc(F)c(F)c2)ncn1 (mixture of isomers)

solubility [1]: 3.2 µg/mL (≈ 6.42 µM) | hepatocyte CLint [2]: 6 µL/min/1e6 cells | efflux ratio (P-gp (ABCB1)): 1.2 | pIC50 (Gamma-secretase [3]): 7.85
Compound: COc1cc(N2C[C@H]3CC[C@@H](C2)[C@@H]3Nc2nc3n(n2)CCCCC3c2ccc(F)c(F)c2F)ccn1 (mixture of isomers)

pIC50 (Gamma-secretase [3]): 7.72
Compound: Cc1cc(N2C[C@H]3CC[C@@H](C2)[C@@H]3Nc2nc3n(n2)CCCCN3c2ccc(C(F)(F)F)cc2)ncn1

solubility [1]: 0.7 µg/mL (≈ 1.45 µM) | hepatocyte CLint [2]: 3.1 µL/min/1e6 cells | efflux ratio (P-gp (ABCB1)): 2.1 | pIC50 (Gamma-secretase [3]): 7.82
Compound: Cc1cc(N2C[C@H]3CC[C@@H](C2)[C@@H]3Nc2nc3n(n2)CCCCC3c2ccc(F)c(F)c2F)ncn1 (mixture of isomers)

pIC50 (Gamma-secretase [3]): 7.82
Compound: Fc1ccc(N2CCCn3nc(N[C@@H]4[C@@H]5CC[C@H]4CN(c4ccnc(C(F)(F)F)c4)C5)nc32)cc1F

solubility [1]: < 0.3 µg/mL | hepatocyte CLint [2]: 2.6 µL/min/1e6 cells | efflux ratio (P-gp (ABCB1)): 1.5 | pIC50 (Gamma-secretase [3]): 7.85
Compound: Fc1ccc(C2CCCCn3nc(N[C@@H]4[C@@H]5CC[C@H]4CN(c4cc(Cl)ncn4)C5)nc32)c(F)c1F (mixture of isomers)

pIC50 (Gamma-secretase [3]): 7.85
Compound: Cc1cc(N2C[C@H]3CC[C@@H](C2)[C@@H]3Nc2nc3n(n2)CCCCC3c2ccc(C(F)(F)F)cc2)ncn1 (mixture of isomers)

solubility [1]: 11 µg/mL (≈ 23.5 µM) | hepatocyte CLint [2]: 3.8 µL/min/1e6 cells | efflux ratio (P-gp (ABCB1)): 1 | pIC50 (Gamma-secretase [3]): 7.80
Compound: COc1cc(N2C[C@H]3CC[C@@H](C2)[C@@H]3Nc2nc3n(n2)CCCN3c2ccc(F)c(F)c2)ccn1
IC20 (hERG (KCNH2)): > 1000 nM | pIC50 [4]: < 5.70

solubility [1]: 161 µg/mL (≈ 356 µM) | hepatocyte CLint [2]: 2 µL/min/1e6 cells | efflux ratio (P-gp (ABCB1)): 3.2 | pIC50 (Gamma-secretase [3]): 7.60
Compound: Cc1cc(N2C[C@H]3CC[C@@H](C2)[C@@H]3Nc2nc3n(n2)CCCN3c2ccc(F)c(F)c2)ncn1
